In patent US20250074897A1, “PYRIDAZINONES AS PARP7 INHIBITORS” (Ribon Therapeutics, Inc., priority 2019, published 2025):

The molecules below were run against T1, PARP7 (TIPARP) (Homo sapiens, UniProt Q7Z3E1) (assay: Enzymatic assay for inhibition of PARP7: TR-FRET displacement of biotinylated Probe A from the TIPARP active site). Conditions: 6 nM TIPARP, 2 nM Probe A, 25° C., 30 min incubation with test compound.
T1 sequence (Q7Z3E1 1-657): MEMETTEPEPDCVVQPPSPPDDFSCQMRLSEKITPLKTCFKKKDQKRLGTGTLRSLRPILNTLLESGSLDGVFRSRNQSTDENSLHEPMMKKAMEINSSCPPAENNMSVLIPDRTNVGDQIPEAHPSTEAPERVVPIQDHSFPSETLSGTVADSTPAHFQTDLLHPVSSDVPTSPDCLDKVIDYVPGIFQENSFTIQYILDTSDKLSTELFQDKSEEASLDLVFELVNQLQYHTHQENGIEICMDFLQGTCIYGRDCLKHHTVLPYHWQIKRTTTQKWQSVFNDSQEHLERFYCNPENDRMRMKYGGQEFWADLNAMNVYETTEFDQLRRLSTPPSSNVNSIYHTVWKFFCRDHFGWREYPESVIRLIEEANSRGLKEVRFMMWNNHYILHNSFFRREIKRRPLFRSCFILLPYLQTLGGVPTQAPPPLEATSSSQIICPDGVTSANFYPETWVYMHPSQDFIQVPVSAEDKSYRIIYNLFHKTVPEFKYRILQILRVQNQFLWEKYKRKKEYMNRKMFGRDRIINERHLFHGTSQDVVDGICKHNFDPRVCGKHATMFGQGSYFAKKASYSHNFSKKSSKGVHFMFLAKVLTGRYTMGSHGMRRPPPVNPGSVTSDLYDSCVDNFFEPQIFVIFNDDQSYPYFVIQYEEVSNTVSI
Type: binding
Protocol: Enzymatic Assay for Inhibition of PARP7
Displacement of Probe A, a biotinylated probe binding to the TIPARP active site, was measured using a time-resolved fluorescence energy transfer (TR-FRET) assay. 20 nL of a dose response curve of each test compound was spotted in black 384-well polystyrene proxiplates (Perkin Elmer) using a Mosquito (TTP Labtech). Reactions were performed in a 8 μL volume by adding 6 μL of TIPARP and Probe A in assay buffer (20 mM HEPES pH=8, 100 mM NaCl, 0.1% bovine serum albumin, 2 mM DTT and 0.002% Tween20), incubating with test compound at 25° C. for 30 min, then adding 2 μL of ULight-anti 6xHis and LANCE Eu-W1024 labeled streptavidin (Perkin Elmer). The final concentrations of TIPARP and Probe A were 6 nM and 2 nM, respectively. The final concentration of ULight-anti 6xHis and LANCE Eu-W1024 labeled streptavidin were 4 nM and 0.25 nM, respectively. Reactions were incubated at 25° C. for an additional 30 min, then read on an Envision platereader equipped with a LANCE/DELFIA top mirror (Perkin Elmer) using excitation of 320 nm and emission of 615 nm and […] with a 90 μs delay. The ratio of the 665/615 nm emission were calculated for each well to determine the amount of complex of TIPARP and Probe A in each well. Control wells containing a negative control of 0.25% DMSO vehicle or a positive control of 100 μM 5-(5-(piperidin-4-yloxy)isoindolin-2-yl)-4-(trifluoromethyl)pyridazin-3(2H)-one were used to calculate the % inhibition as described below:
where TRFempd is the TR-FRET ratio from the compound treated well, TRFmin is the TR-FRET ratio from the 5-(5-(piperidin-4-yloxy)isoindolin-2-yl)-4-(trifluoromethyl)pyridazin-3(2H)-one-treated positive control well and TRFmax is the TR-FRET ratio from the DMSO-treated negative control well.
The % inhibition values were plotted as a function of compound concentration and the following 4-parameter fit was applied to derive the IC50 values:
where top and bottom are normally allowed to float, but may be fixed at 100 or 0 respectively in a 3-parameter fit. The Hill Coefficient is normally allowed to float but may also be fixed at 1 in a 3-parameter fit. Y is the % inhibition and X is the compound concentration.
For `COC[C@@H](COCC(O)C(=O)N1CCN(c2ncc(C(F)(F)F)cn2)CC1)Nc1cn[nH]c(=O)c1C(F)(F)F` (stereo partly drawn) [Example 14, 5-(((2S)-1-(2-hydroxy-3-oxo-3-(4-(5-(trifluoromethyl)pyrimidin-2-yl)piperazin-1-yl)propoxy)-3-methoxypropan-2-yl)amino)-4-(trifluoromethyl)pyridazin-3(2H)-one], the IC50 was < 100 nM.
`CC[C@@H](COCC(O)C(=O)N1CCN(c2ncc(C(F)(F)F)cn2)CC1)Nc1cn[nH]c(=O)c1C(F)(F)F` (stereo partly drawn) [Example 15, 5-(((2S)-1-(2-hydroxy-3-oxo-3-(4-(5-(trifluoromethyl)pyrimidin-2-yl)piperazin-1-yl)propoxy)butan-2-yl)amino)-4-(trifluoromethyl)pyridazin-3(2H)-one] was tested, and the IC50 was < 100 nM.
`O=C([C@H](O)COC[C@H](COC(F)(F)F)Nc1cn[nH]c(=O)c1C(F)(F)F)N1CCN(c2ncc(C(F)(F)F)cn2)CC1` [Example 16A, 5-(((R)-1-((R)-2-hydroxy-3-oxo-3-(4-(5-(trifluoromethyl)pyrimidin-2-yl)piperazin-1-yl)propoxy)-3-(trifluoromethoxy)propan-2-yl)amino)-4-(trifluoromethyl)pyridazin-3(2H)-one] was tested, and the IC50 was < 100 nM.
`O=C([C@@H](O)COC[C@H](COC(F)(F)F)Nc1cn[nH]c(=O)c1C(F)(F)F)N1CCN(c2ncc(C(F)(F)F)cn2)CC1` [Example 16B, 5-(((R)-1-((S)-2-hydroxy-3-oxo-3-(4-(5-(trifluoromethyl)pyrimidin-2-yl)piperazin-1-yl)propoxy)-3-(trifluoromethoxy)propan-2-yl)amino)-4-(trifluoromethyl)pyridazin-3(2H)-one] was tested, and the IC50 was < 100 nM.
`O=C(C(O)COC[C@@H]1CCN1c1cn[nH]c(=O)c1C(F)(F)F)N1CCN(c2ncc(C(F)(F)F)cn2)CC1` (stereo partly drawn) [Example 18, 5-((2S)-2-((2-hydroxy-3-oxo-3-(4-(5-(trifluoromethyl)pyrimidin-2-yl)piperazin-1-yl)propoxy)methyl)azetidin-1-yl)-4-(trifluoromethyl)pyridazin-3(2H)-one] was tested, and the IC50 was < 100 nM.
